In brackets after ≈: the same amount, converted by molar mass. Activity calls are given as the source filed them. The calls are words filed in the database; no cut-off is given here.
Tests used:
[1] = target: Metallo-beta-lactamase type 2 (Bacteria, UniProt C7C422); assay: Inhibition of Metallo-beta-lactamase NDM-1 (unknown origin) using nitrocefin as substrate incubated for 5 to 10 mins by spectramax reader analysis
Escherichia coli [2] = assay: Antibacterial activity against NDM-1 producing Escherichia coli assessed as inhibition of bacterial growth at 4 ug/ml incubated for 5 hrs by time-kill assay; type: functional, organism-based; conditions: dose 4.0 µg/ml
Escherichia coli [3] = assay: Antibacterial activity in NDM-1 producing Escherichia coli infected in BALB/c mouse assessed as reduction of bacterial burden in small intestine at 10 mg/kg,SC administration measured after 96 hrs of post-infection; type: functional, organism-based
Escherichia coli [4] = assay: Antibacterial activity in NDM-1 producing Escherichia coli infected in BALB/c mouse assessed as decrease in pathological damage in spleen at 10 mg/kg,SC administration measured after 96 hrs of post-infection by hematoxylin and eosin staining based assay; type: functional, organism-based
Escherichia coli [5] = assay: Antibacterial activity in NDM-1 producing Escherichia coli infected in BALB/c mouse assessed as reduction of bacterial burden in liver at 10 mg/kg,SC administration measured after 96 hrs of post-infection; type: functional, organism-based
Escherichia coli [6] = assay: Antibacterial activity in NDM-1 producing Escherichia coli infected in BALB/c mouse assessed as decrease in pathological damage in small intestine at 10 mg/kg,SC administration measured after 96 hrs of post-infection by hematoxylin and eosin staining based assay; type: functional, organism-based
Escherichia coli [7] = assay: Antibacterial activity in NDM-1 producing Escherichia coli infected in BALB/c mouse assessed as increase in animal survival rate at 10 mg/kg,SC administrated upto 120 hrs for every 12 hrs interval; type: functional
Escherichia coli [8] = assay: Antibacterial activity against NDM-1 producing Escherichia coli assessed as inhibition of bacterial growth incubated overnight by broth microdilution assay; type: functional
Escherichia coli [9] = assay: Antibacterial activity in NDM-1 producing Escherichia coli infected in BALB/c mouse assessed as decrease in pathological damage in liver at 10 mg/kg,SC administration measured after 96 hrs of post-infection by hematoxylin and eosin staining based assay; type: functional, organism-based
Escherichia coli [10] = assay: Antibacterial activity in NDM-1 producing Escherichia coli infected in BALB/c mouse assessed as reduction of bacterial burden in spleen at 10 mg/kg,SC administration measured after 96 hrs of post-infection; type: functional, organism-based
[11] = test system: Beta-lactamase NDM-1 (Escherichia coli), E5KIY2 [UNDEFINED MUTATION]; assay: Inhibition of Escherichia coli recombinant NDM-1 mutant expressed in Escherichia coli BL21 (DE3) at 4 to 128 ug/ml incubated for 10 mins; conditions: dose 4-128 µg/ml
Escherichia coli [12] = assay: Antibacterial activity against NDM-1 producing Escherichia coli assessed as inhibition of bacterial growth at 2 to 512 ug/ml incubated overnight by broth microdilution assay; type: functional, organism-based; conditions: dose 2-512 µg/ml
Escherichia coli [13] = assay: Antibacterial activity in NDM-1 producing Escherichia coli infected in BALB/c mouse assessed as decrease in IL-1beta level at 10 mg/kg,IG administration measured after 96 hrs of post-infection by ELISA; type: functional, organism-based
[14] = target: Beta-lactamase NDM-1 (Escherichia coli) (UniProt E5KIY2); assay: Inhibition of Escherichia coli recombinant wild type NDM-1 expressed in Escherichia coli BL21 (DE3) incubated for 10 mins
Escherichia coli [15] = assay: Antibacterial activity in NDM-1 producing Escherichia coli infected in BALB/c mouse assessed as decrease in pathological damage in small intestine at 10 mg/kg,IG administration measured after 96 hrs of post-infection by hematoxylin and eosin staining based assay; type: functional, organism-based
Escherichia coli [16] = assay: Synergistic antibacterial activity against NDM-1 producing Escherichia coli assessed as fractional inhibitory concentration index in presence of meropenem by checkerboard broth microdilution assay; type: functional
Escherichia coli [17] = assay: Antibacterial activity in NDM-1 producing Escherichia coli infected in BALB/c mouse assessed as effect on white blood cell count at 10 mg/kg,IG administration measured after 96 hrs of post-infection; type: functional, organism-based
Escherichia coli [18] = assay: Synergistic antibacterial activity against NDM-1 producing Escherichia coli assessed as inhibition of bacterial growth by measuring meropenem MIC incubated overnight in presence of meropenem by broth microdilution assay; type: functional
Escherichia coli [19] = assay: Antibacterial activity in NDM-1 producing Escherichia coli infected in BALB/c mouse assessed as decrease in pathological damage in spleen at 10 mg/kg,IG administration measured after 96 hrs of post-infection by hematoxylin and eosin staining based assay; type: functional, organism-based
[20] = target: Beta-lactamase NDM-1 (Escherichia coli) (UniProt E5KIY2); assay: Binding affinity to Escherichia coli NDM-1 assessed as melting temperature at 64 ug/ml incubated for 18 hrs by CD spectroscopy; conditions: dose 64.0 µg/ml
Escherichia coli [21] = assay: Antibacterial activity in NDM-1 producing Escherichia coli infected in BALB/c mouse assessed as decrease in TNF-alpha level at 10 mg/kg,IG administration measured after 96 hrs of post-infection by ELISA; type: functional, organism-based
[22] = target: Beta-lactamase NDM-1 (Escherichia coli) (UniProt E5KIY2); assay: Inhibition of Escherichia coli recombinant wild type NDM-1 expressed in Escherichia coli BL21 (DE3) at 4 to 128 ug/ml incubated for 10 mins relative to control; conditions: dose 4-128 µg/ml
Escherichia coli [23] = assay: Antibacterial activity in NDM-1 producing Escherichia coli infected in BALB/c mouse assessed as decrease in pathological damage in liver at 10 mg/kg,IG administration measured after 96 hrs of post-infection by hematoxylin and eosin staining based assay; type: functional, organism-based
Escherichia coli [24] = assay: Antibacterial activity in NDM-1 producing Escherichia coli infected in BALB/c mouse assessed as increase in animal survival rate at 10 mg/kg,IG administrated upto 120 hrs for every 12 hrs interval; type: functional; conditions: po
Escherichia coli [25] = assay: Antibacterial activity against NDM-1 producing Escherichia coli assessed as inhibition of bacterial growth at 64 ug/ml incubated for 5 hrs by time-kill assay; type: functional, organism-based; conditions: dose 64.0 µg/ml
Escherichia coli [26] = assay: Antibacterial activity in NDM-1 producing Escherichia coli infected in BALB/c mouse assessed as decrease in IFN-gamma level at 10 mg/kg,IG administration measured after 96 hrs of post-infection by ELISA; type: functional, organism-based
Escherichia coli [27] = assay: Synergistic antibacterial activity in NDM-1 producing Escherichia coli infected in BALB/c mouse assessed as increase in animal survival rate at 10 mg/kg,IG administrated with meropenem by subcutaneous injection upto 120 hrs for every 12 hrs interval; type: functional
Beta-lactamase NDM-1 [28] = target: T1, Beta-lactamase NDM-1 (Escherichia coli, UniProt E5KIY2); assay: Inhibition of Escherichia coli NDM-1 expressed in Escherichia coli BL21 (DE3) using nitrocefin as substrate by microplate reader analysis
Escherichia coli [29] = assay: Synergistic antibacterial activity against NDM-1 producing Escherichia coli assessed as inhibition of bacterial growth incubated overnight in presence of meropenem by broth microdilution assay; type: functional
Beta-lactamase NDM-1 [30] = target: T1, Beta-lactamase NDM-1; assay: Binding affinity to Escherichia coli NDM-1 assessed as equilibrium dissociation constant measured for 60 sec by bio-layer interferometry analysis
[31] = target: Beta-lactamase NDM-1 (Escherichia coli) (UniProt E5KIY2); assay: Inhibition of Escherichia coli NDM-1 expressed in Escherichia coli BL21 (DE3) using nitrocefin as substrate at 10 ug/ml by microplate reader analysis relative to control; conditions: dose 10.0 µg/ml
[32] = target: Beta-lactamase NDM-1 (Escherichia coli) (UniProt E5KIY2); assay: Inhibition of Escherichia coli NDM-1 assessed as effect on NDM-1 protein expression at 64 ug/ml incubated for 12 hrs by Western blotting analysis; conditions: dose 64.0 µg/ml
[33] = target: Beta-lactamase NDM-1 (Escherichia coli) (UniProt E5KIY2); assay: Binding affinity to Escherichia coli NDM-1 by bio-layer interferometry analysis

**Q.** How did the IC50 [1] turn out when N[C@@H](CN[C@@H](CN[C@@H](CC(=O)O)C(=O)O)C(=O)O)C(=O)O was run?
**A.** 4.1 µM

**Q.** For C[C@@H](O)[C@H]1C(=O)N2C(C(=O)O)=C(S[C@@H]3CN[C@H](C(=O)N(C)C)C3)[C@H](C)[C@H]12 [MEROPENEM], which Activity (Escherichia coli [2]) is on record?
**A.** inactive

**Q.** What about the Activity (Escherichia coli [3]) of the same molecule?
**A.** Active

**Q.** What about the Activity (Escherichia coli [4]) of the same molecule?
**A.** Active

**Q.** And the Activity (Escherichia coli [5])?
**A.** Active

**Q.** What about the Activity (Escherichia coli [6]) of the same molecule?
**A.** Active

**Q.** What about the survival at 10 mg/kg (Escherichia coli [7]) of the same molecule?
**A.** 40%

**Q.** And the MIC (Escherichia coli [8])?
**A.** 64 µg/mL (≈ 167 µM)

**Q.** And the Activity (Escherichia coli [9])?
**A.** Active

**Q.** What about the Activity (Escherichia coli [10]) of the same molecule?
**A.** Active

**Q.** How did the inhibition [11] turn out when COc1cccc(-c2ccc(NC(=O)C3=C(C(=O)O)CCC3)c(F)c2)c1 [VIDOFLUDIMUS] was run?
**A.** inactive

**Q.** And the Activity (Escherichia coli [12])?
**A.** inactive

**Q.** What about the Activity (Escherichia coli [13]) of the same molecule?
**A.** inactive

**Q.** What about the inhibition [14] of the same molecule?
**A.** Dose-Dependent Effect

**Q.** And the Activity (Escherichia coli [15])?
**A.** inactive

**Q.** What about the “fractional inhibitory concentration index (FICI)” value (Escherichia coli [16]) of the same molecule?
**A.** 0.125

**Q.** And the MIC (Escherichia coli [8])?
**A.** 1020 µg/mL (≈ 2880 µM)

**Q.** What about the Activity (Escherichia coli [17]) of the same molecule?
**A.** inactive

**Q.** And the MIC (Escherichia coli [18])?
**A.** 4 µg/mL

**Q.** And the Activity (Escherichia coli [19])?
**A.** inactive

**Q.** What about the Tm [20] of the same molecule?
**A.** 58 °C

**Q.** What about the Activity (Escherichia coli [21]) of the same molecule?
**A.** inactive

**Q.** And the inhibition [22]?
**A.** 14.9%

**Q.** And the Activity (Escherichia coli [23])?
**A.** inactive

**Q.** And the survival at 10 mg/kg (Escherichia coli [24])?
**A.** 10%

**Q.** And the Activity (Escherichia coli [25])?
**A.** inactive

**Q.** What about the Activity (Escherichia coli [26]) of the same molecule?
**A.** inactive

**Q.** What about the survival at 10 mg/kg (Escherichia coli [27]) of the same molecule?
**A.** 90%

**Q.** What about the IC50 (Beta-lactamase NDM-1 [28]) of the same molecule?
**A.** 13.8 µM

**Q.** What about the MIC (Escherichia coli [29]) of the same molecule?
**A.** 64 µg/mL

**Q.** And the Kd (Beta-lactamase NDM-1 [30])?
**A.** 0.337 µM

**Q.** And the inhibition [31]?
**A.** 93.3%

**Q.** What about the inhibition [32] of the same molecule?
**A.** inactive

**Q.** What about the Activity [33] of the same molecule?
**A.** Dose-Dependent Effect

From ChEMBL document CHEMBL5385903, “The activity and mechanism of vidofludimus as a potent enzyme inhibitor against NDM-1-positive E. coli” (Eur J Med Chem, 2023)
